Biological target: T1, Orexin receptor type 2 (Homo sapiens, UniProt O43614)
T1 sequence (O43614 whole entry): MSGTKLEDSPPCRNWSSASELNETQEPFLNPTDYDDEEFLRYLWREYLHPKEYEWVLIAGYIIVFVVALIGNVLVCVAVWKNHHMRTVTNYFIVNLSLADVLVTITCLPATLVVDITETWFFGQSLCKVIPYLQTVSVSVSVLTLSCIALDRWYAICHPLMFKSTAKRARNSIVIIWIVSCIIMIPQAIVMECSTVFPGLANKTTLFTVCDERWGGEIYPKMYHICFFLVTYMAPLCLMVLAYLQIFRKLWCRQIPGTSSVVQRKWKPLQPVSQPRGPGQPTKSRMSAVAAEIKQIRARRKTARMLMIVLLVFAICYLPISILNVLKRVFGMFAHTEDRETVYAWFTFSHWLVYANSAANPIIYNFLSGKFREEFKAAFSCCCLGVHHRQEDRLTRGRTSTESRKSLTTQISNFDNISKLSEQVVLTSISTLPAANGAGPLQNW
Test: FLIPR Ca2+ Flux Assay: FLIPR Ca2+ Flux Assay- (Okumura et al., Biochem. Biophys. Res. Comm. 280:976-981, 2001). In a typical experiment the OX1 and OX2 receptor antagonistic activity of the compounds of the present invention was determined in accordance with the following experimental method. For intracellular calcium measurements, Chinese hamster ovary (CHO) cells expressing the rat orexin-1 receptor or the human orexin-2 receptor, are grown in Iscove's modified DMEM containing 2 mM L-glutamine, […], 1% hypoxanthine-thymidine supplement, 100 U/ml penicillin, 100 μg/ml streptomycin and 10% heat-inactivated fetal calf serum (FCS). The cells are seeded at 20,000 cells/well into Becton-Dickinson black 384-well clear bottom sterile plates coated with poly-D-lysine. All reagents were from GIBCO-Invitrogen Corp. The seeded plates are incubated overnight at […]. and 5% CO2. Ala-6,12 human orexin-A as the agonist is prepared as a 1 mM stock solution in 1% bovine serum albumin (BSA) and diluted in assay buffer (HBSS containing 20 mM HEPES, 0.1% BSA and 2.5 mM probenecid, pH7.4) for use in the assay at a final concentration of 70 pM. Test compounds are prepared as 10 mM stock solution in DMSO, then diluted in 384-well plates, first in DMSO, then assay buffer. […]
Format: cell-based

Work on CC(=O)N(c1cc(C#N)ccn1)[C@@H]1CC[C@@H](C)N(C(=O)c2ccccc2-n2nccn2)C1 yielded an IC50 of 1.78 µM.

Source: ChEMBL document CHEMBL5726126, “2-pyridylamino-4-nitrile-piperidinyl orexin receptor antagonists” (2017)
